Experimental data from patent publication US5079260A, “Method for treating inflammation and compounds and compositions suitable for use therein” (Nova Pharmaceutical Corporation, priority 1990, dated 1992).
Counter-ions that a name gives are not always drawn.

What was measured:
[1] = test system: Reverse Passive Artus Reaction; assay: Reverse Passive Artus Reaction (II), Table 11; assay type: in vivo, Male CD rats; details: inhibition of blueing, i.p.
Method: Reverse Passive Artus Reaction (II) Male CD rats weighing between 200 and 250 g were used. […] The animals were anesthetized inhalationally with isoflurane and then injected through the penile vein with 1 mL of a solution of 2.5 mg of Evan's blue dye and 5.0 mg of human serum albumin in 1 mL of saline. This treatment was followed immediately by intracutaneous injections of 0.03 mL of anti-human albumin diluted to contain 3.65 mg of antibody at 3 sites along the midline back. Anesthesia was terminated and after three hours, the animals were sacrificed. The skin was removed and the blue stained areas cut out. The skin patches were soaked overnight in stoppered tubes containing 1 mL of 1 N potassium hydroxide at 37° C. Then 9 mL of a mixture of five parts of a 0.6 N phosphoric acid and thirteen parts of acetone were added to the tubes. The tube contents were agitated and centrifuged, and the absorbance measured at 620 nm. The data were calculated as inhibition of blueing by test compound compared to control animals receiving only antigen and antibody.

[2] = test system: Ear Edema Caused by Arachidonic Acid; assay: Inhibition of Ear Edema Caused by Arachidonic Acid (II), Table 8; assay type: in vivo, CF-1 mice; details: i.p., sixty minutes
Method: Inhibition of Ear Edema Caused by Arachidonic Acid (II)
CF-1 mice, 25-30 g body weight, six animals per group, were used. The requisite amount of the test compound was dissolved is dimethyl sulfoxide or 0.5% methylcellulose and 100 μL of the solution was injected intraperitoneally 30 minutes prior to the administration of 100 mg/kg of arachidponic acid. A solution of this irritant, b 100 mg/mL in ethanol, was applied to the surface of the ear, 5 μL to the upper surface and 5 μL to the lower surface. After sixty minutes, the thickness of the ear was measured to 0.01 mm by a micrometer with the loose drag positioned at the lateral-most edge of the mid-point of the pinna. Data were calculated as the percent inhibityion by the test compound of increased ear thickness compared to control animals recieveing only the irritant.

[3] = test system: Ear Edema Caused by Oxazolone; assay: Inhibition of Ear Edema Caused by Oxazolone (II), Table 10; assay type: in vivo, CF-1 mice; details: i.p., 24 h
Method: Inhibition of Ear Edema Caused by Oxazolone (II)
CF-1 mice, 25-30 g body weight, five to six animals per group were used. The mice were sensitized to the irritant two weeks prior to the test by dribbling 100 μL of a 3% solution of oxazolone in acetone onto the abdominal skin of the animal. Test compounds were administered intraperitoneally as follows. […] The irritant, 3% oxazolone in acetone, was added to the surface of the ear, 5 μL added to the upper surface and 5 μL added to the lower surface. After twenty four hours, the thickness of the ear was measured to 0.01 mm by a micrometer with loose drag, positioned at the lateral-most edge of the mid-point of the pinna. Data were calculated as the inhibition of increased ear thickness compared to control animals' receiving only the irritant.

[4] = test system: Ear Edema Caused By Tetradecanoylphorbol Acetate; assay: Inhibition of Ear Edema Caused by Tetradecanoylphorbol Acetate (II), Table 7; assay type: in vivo, CF-1 Mice; details: 3 h; for % Inhibition Intraperitoneal: i.p.
Method: Inhibition of Ear Edema Caused by Tetradecanoylphorbol Acetate (II)
CF-1 Mice, 25-30 g body weight, six animals per group were used. Test compounds were administered intraperitoneally or topically as follows. For intraperitoneal administration, the test compound was dissolved in dimethyl sulfoxide or 0.5% methylcellulose and 100 microliters was injected 30 minutes prior to irritant (100 mg/kg, i.p.). […] A solution of the irritant, tetradecanoylphorbol acetate, 200 μg/mL, was added to the surface of the ear, 5 μL to the upper surface and 5 μL to the lower surface. After three hours, the thickness of the ear was measured to 0.01 mm by a micrometer with loose drag, positioned at the lateral-most edge of the mid-point of the pinna. Data were calculated as the inhibition of increased ear thickness compared to control animals receiving only the irritant.

[5] = test system: Ear Edema Caused by Xylene; assay: Inhibition of Ear Edema Caused by Xylene (II), Table 9; assay type: in vivo, CF-1 mice; details: i.p., 2 h
Method: Inhibition of Ear Edema Caused by Xylene (II)
CF-1 mice, 25-30 g body weight, six animals per group, were used. The requisite amount of the test compound was dissolved is dimethyl sulfoxide or 0.5% methylcellulose and 100 μL of the solution was injected intraperitoneally 30 minutes prior to the administration the irritant. The irritant xylene was applied to the surface of the ear, 20 μL to the upper surface and 20 μL to the lower surface, After two hours, the thickness of the ear was measured to 0.01 mm by a micrometer with the loose drag positioned at the lateral-most edge of the mid-point of the pinna. Data were calculated as the percent inhibition by the test compound of increased ear thickness compared to control animals receiving only the irritant.

## COc1ccc2c(c1)c(CC(=O)O)c(C)n2C(=O)c1ccc(Cl)cc1 [Indomethacin, reference compound]
[1]; 1 mg/kg
  % Inhibition Intraperitoneal: 5%
[1]; 3 mg/kg
  % Inhibition Intraperitoneal: 26%
[1]; 10 mg/kg
  % Inhibition Intraperitoneal: 27%
[2]; 100 mg/kg
  % Inhibition Intraperitoneal: 1%
[3]; 1 mg/kg
  % Inhibition Intraperitoneal: 4%
[3]; 3 mg/kg
  % Inhibition Intraperitoneal: 35%

## COC(=O)[C@H](CC(C)C)NC(=O)OCC1c2ccccc2-c2ccccc21 [NPC 15326, N-[(9H-Fluoren-9-ylmethoxy)carbonyl]-L-leucine methyl ester]
[1]; 100 mg/kg
  % Inhibition Intraperitoneal: 19%

## CC(C)CC(CO)NC(=O)OCC1c2ccccc2-c2ccccc21 (centres unmarked) [NPC 15427, 2-{N-[(9H-Fluoren-9-ylmethoxy)carbonyl]amino}-4-methylpentanol]
[1]; 100 mg/kg
  % Inhibition Intraperitoneal: 14%

## CC(C)C[C@H](NC(=O)OCC1c2ccccc2-c2ccccc21)C(=O)OCC(O)CO (some centres unmarked) [NPC 15430]
[1]; 100 mg/kg
  % Inhibition Intraperitoneal: 48%

## CC(C)C[C@H](NC(=O)CCC1c2ccccc2-c2ccccc21)C(=O)O [NPC 15476, N-[3-(9H-Fluoren-9-yl)propionyl]-L-leucine]
[1]; 100 mg/kg
  % Inhibition Intraperitoneal: 56%
[4]; 100 mg/kg
  % Inhibition Intraperitoneal: 64%
[3]; 10 mg/kg
  % Inhibition Intraperitoneal: 0%
[3]; 30 mg/kg
  % Inhibition Intraperitoneal: 5%
[3]; 100 mg/kg
  % Inhibition Intraperitoneal: 43%

## Cc1ccc2c(c1)C(COC(=O)N[C@@H](CC(C)C)C(=O)O)c1ccccc1-2 (stereo partly drawn) [NPC 15477, N-{[9H-(2-Methylfluoren-9-yl)methoxy]carbonyl}-L-leucine]
[5]; 10 mg/kg
  % Inhibition: 41%
[5]; 30 mg/kg
  % Inhibition: 53%
[5]; 100 mg/kg
  % Inhibition: 69%
[1]; 100 mg/kg
  % Inhibition Intraperitoneal: 53%
[4]; 10 mg/kg
  % Inhibition Intraperitoneal: 35%
[4]; 30 mg/kg
  % Inhibition Intraperitoneal: 37%
[4]; 100 mg/kg
  % Inhibition Intraperitoneal: 72%
[2]; 10 mg/kg
  % Inhibition Intraperitoneal: 10%
[2]; 30 mg/kg
  % Inhibition Intraperitoneal: 58%
[2]; 100 mg/kg
  % Inhibition Intraperitoneal: 82%
[3]; 10 mg/kg
  % Inhibition Intraperitoneal: 3%
[3]; 30 mg/kg
  % Inhibition Intraperitoneal: 14%
[3]; 100 mg/kg
  % Inhibition Intraperitoneal: 43%

## COc1ccc2c(c1)C(COC(=O)N[C@@H](CC(C)C)C(=O)O)c1ccccc1-2 (stereo partly drawn) [NPC 15489, N-[(2-Methoxyfluoren-9-ylmethoxy)carbonyl]-L-leucine]
[1]; 100 mg/kg
  % Inhibition Intraperitoneal: 64%

## CC(C)C[C@H](NC(=O)OCCC1c2ccccc2-c2ccccc21)C(=O)O [NPC 15521, N-[(9H-Fluoren-9-ylethoxy)carbonyl]-L-leucine]
[5]; 10 mg/kg
  % Inhibition: 20%
[5]; 30 mg/kg
  % Inhibition: 15%
[5]; 100 mg/kg
  % Inhibition: 57%
[1]; 100 mg/kg
  % Inhibition Intraperitoneal: 63%
[4]; 10 mg/kg
  % Inhibition Intraperitoneal: 33%
[4]; 30 mg/kg
  % Inhibition Intraperitoneal: 37%
[4]; 100 mg/kg
  % Inhibition Intraperitoneal: 77%
[2]; 10 mg/kg
  % Inhibition Intraperitoneal: 34%
[2]; 30 mg/kg
  % Inhibition Intraperitoneal: 41%
[2]; 100 mg/kg
  % Inhibition Intraperitoneal: 69%
[3]; 10 mg/kg
  % Inhibition Intraperitoneal: 39%
[3]; 30 mg/kg
  % Inhibition Intraperitoneal: 45%
[3]; 100 mg/kg
  % Inhibition Intraperitoneal: 74%

## CC(C)C[C@H](NC(=O)OCC1c2ccccc2-c2ccccc21)C(=O)OC(C)(C)C [NPC 15527, N-[(9H-Fluoren-9-ylmethoxy)carbonyl]-L-leucine t-butyl ester]
[5]; 10 mg/kg
  % Inhibition: 42%
[5]; 30 mg/kg
  % Inhibition: 34%
[5]; 100 mg/kg
  % Inhibition: 50%
[1]; 100 mg/kg
  % Inhibition Intraperitoneal: 4%
[4]; 10 mg/kg
  % Inhibition Intraperitoneal: 54%
[4]; 30 mg/kg
  % Inhibition Intraperitoneal: 54%
[4]; 100 mg/kg
  % Inhibition Intraperitoneal: 74%
[2]; 10 mg/kg
  % Inhibition Intraperitoneal: 21%
[2]; 30 mg/kg
  % Inhibition Intraperitoneal: 47%
[2]; 110 mg/kg (so in the source)
  % Inhibition Intraperitoneal: 68%
[3]; 10 mg/kg
  % Inhibition Intraperitoneal: 31%
[3]; 30 mg/kg
  % Inhibition Intraperitoneal: 33%
[3]; 110 mg/kg (so in the source)
  % Inhibition Intraperitoneal: 54%

## CNC(=O)[C@H](CC(C)C)NC(=O)OCC1c2ccccc2-c2ccccc21 [NPC 15529, N-[(9H-Fluoren-9-ylmethoxy)carbonyl]-L-leucine methylamide]
[5]; 10 mg/kg
  % Inhibition: 50%
[5]; 30 mg/kg
  % Inhibition: 47%
[5]; 100 mg/kg
  % Inhibition: 50%
[1]; 100 mg/kg
  % Inhibition Intraperitoneal: 0%
[4]; 10 mg/kg
  % Inhibition Intraperitoneal: 67%
[4]; 30 mg/kg
  % Inhibition Intraperitoneal: 67%
[4]; 100 mg/kg
  % Inhibition Intraperitoneal: 78%
[2]; 10 mg/kg
  % Inhibition Intraperitoneal: 16%
[2]; 30 mg/kg
  % Inhibition Intraperitoneal: 32%
[2]; 100 mg/kg
  % Inhibition Intraperitoneal: 29%
[3]; 10 mg/kg
  % Inhibition Intraperitoneal: 32%
[3]; 30 mg/kg
  % Inhibition Intraperitoneal: 41%
[3]; 100 mg/kg
  % Inhibition Intraperitoneal: 76%

## CC(C)(C)[C@H](NC(=O)OCC1c2ccccc2-c2ccccc21)C(=O)O [NPC 15573, N-[(9H-Fluoren-9-ylmethoxy)carbonyl]-L-tert-leucine]
[5]; 10 mg/kg
  % Inhibition: 23%
[5]; 30 mg/kg
  % Inhibition: 17%
[1]; 100 mg/kg
  % Inhibition Intraperitoneal: 50%
[4]; 10 mg/kg
  % Inhibition Intraperitoneal: 39%
[4]; 30 mg/kg
  % Inhibition Intraperitoneal: 52%
[4]; 100 mg/kg
  % Inhibition Intraperitoneal: 75%
[4]; dose 10 (mg/kg)
  % Inhibition, topical: 20%
[4]; dose 30 (mg/kg)
  % Inhibition, topical: 31%
[4]; dose 100 (mg/kg)
  % Inhibition, topical: 38%
[2]; 10 mg/kg
  % Inhibition Intraperitoneal: 27%
[2]; 30 mg/kg
  % Inhibition Intraperitoneal: 32%
[2]; 100 mg/kg
  % Inhibition Intraperitoneal: 42%
[3]; 30 mg/kg
  % Inhibition Intraperitoneal: 28%
[3]; 100 mg/kg
  % Inhibition Intraperitoneal: 48%

## Cc1cccc2c1C(COC(=O)N[C@@H](CC(C)C)C(=O)O)c1ccccc1-2 (stereo partly drawn) [NPC 15638, N-{[9H-(1-Methylfluoren-9-yl)methoxy]carbonyl}-L-leucine]
[5]; 10 mg/kg
  % Inhibition: 37%
[5]; 30 mg/kg
  % Inhibition: 66%
[5]; 100 mg/kg
  % Inhibition: 82%
[1]; 100 mg/kg
  % Inhibition Intraperitoneal: 68%
[4]; 10 mg/kg
  % Inhibition Intraperitoneal: 23%
[4]; 30 mg/kg
  % Inhibition Intraperitoneal: 12%
[4]; 100 mg/kg
  % Inhibition Intraperitoneal: 62%
[2]; 100 mg/kg
  % Inhibition Intraperitoneal: 65%
[3]; 30 mg/kg
  % Inhibition Intraperitoneal: 67%
[3]; 100 mg/kg
  % Inhibition Intraperitoneal: 74%

## Cc1cccc2c1-c1c(C)cccc1C2COC(=O)N[C@@H](CC(C)C)C(=O)O [NPC 15670]
[5]; 10 mg/kg
  % Inhibition: 78%
[5]; 30 mg/kg
  % Inhibition: 46%
[5]; 100 mg/kg
  % Inhibition: 50%
[1]; 100 mg/kg
  % Inhibition Intraperitoneal: 82%
[4]; 10 mg/kg
  % Inhibition Intraperitoneal: 27%
[4]; 30 mg/kg
  % Inhibition Intraperitoneal: 117%
[4]; 100 mg/kg
  % Inhibition Intraperitoneal: 150%
[3]; 10 mg/kg
  % Inhibition Intraperitoneal: -36%
[3]; 30 mg/kg
  % Inhibition Intraperitoneal: 43%

## CC(C)C[C@H](NC(=O)CCC1c2ccccc2-c2ccccc21)C(=O)O [NPC 15672, N-{9H-[3-Fluorenyl-9)propionyl]}-L-leucine, sodium salt]
[1]; 100 mg/kg, sodium salt
  % Inhibition Intraperitoneal: 34%
[4]; 10 mg/kg
  % Inhibition Intraperitoneal: 54%
[4]; 30 mg/kg
  % Inhibition Intraperitoneal: 21%
[4]; 100 mg/kg, sodium salt
  % Inhibition Intraperitoneal: 66%
[3]; 10 mg/kg, sodium salt
  % Inhibition Intraperitoneal: 11%
[3]; 30 mg/kg, sodium salt
  % Inhibition Intraperitoneal: 19%
[3]; 100 mg/kg, sodium salt
  % Inhibition Intraperitoneal: 35%
